Here are results for 1 compound from patent publication US20240398823A1, “DUAL INHIBITOR OF HISTONE DEACETYLASE 6 AND HEAT SHOCK PROTEIN 90” (TAIPEI MEDICAL UNIVERSITY, priority 2021, published 2024).

One data set relates to serum TGF-β and IL-2. The data set can be described thus: Serum cytokines in CT26 tumor mice. Format: in vivo, mouse. The settings on record: day 25, 10, 25, 50 mg/kg. How it is done: FIGS. 11A and 11B show effects of Compound 75 on peripheral blood cytokines. BALB/c mice with CT26 tumors were treated with 10, 25 and 50 mg/kg of Compound 75 every two days and sacrificed on day 25. Data are expressed as mean t S.D. N values greater than 3. *P<0.05; ** P<0.01; *** P<0.001, compared to the control group.
The reasons for the decrease of Treg in blood were further investigated.

A further data set concerns HCT116. The data set can be described thus: MTT assay, survival of human colorectal cancer cells HCT116. The data set is classed as cell-based. The settings on record: HCT-116, 48 h, mean ± SD, read-out: Human cell lines HCT116 IC50(μM ± SD). How it is done: The effects on cell viability of the HSP90/HDAC6 dual inhibitors as described in Synthesis Examples (such as Compounds 63, 64, and 66 to 76) were evaluated. Cells were seeded in 96-well plates (5000 cells/well). The next day, the serially diluted drugs were added into the wells and incubated at 37° C. for 48 h. Cell viability was measured by the MTT assay and is expressed as percentages of surviving drug-treated cells relative to untreated control cells. The IC50 was calculated by non-linear regression analysis.
The inhibitory effect of the HSP90/HDAC6 dual inhibitors as described in Synthesis Examples on the survival rate of human colorectal cancer cells HCT116 is evaluated using MTT assay.
In general terms: Tetrazolium assays rely on reduction of a dye to a coloured formazan, in cell work by metabolically active cells.

The test system of the next data set is CT26 tumor recurrence. The data set can be described thus: CT26 tumor recurrence after tumor removal and re-inoculation. The data set is classed as in vivo, mouse. Particulars: 50 mg/kg every two days, day 37. The method, then: (§1) Stage 1: CT26 was injected subcutaneously into the left dorsum of immunocompetent mice (BALB/c), and Compound 75 treatment was started after 3 days, administered intravenously at a dose of 50 mg/kg every two days (7 doses in total). After tumor removal, tumor cells were isolated for in vitro culture (untreated tumor control-tumor; Compound 75-treated tumor: Compound 75-tumor). Stage 2: On day 17, the isolated tumor cells were injected subcutaneously into the right side of the mouse back and the mice were sacrificed on day 37 (as shown in FIG. 14A). […] Data are mean t S.E.M. N values greater than 4.
Whether Compound 75 induces the performance of memory T cells to prevent tumor recurrence was further investigated. Mouse colorectal cancer cells (CT26) were inoculated into the back of immunocompetent mice (BALB/c) and gave control or Compound 75 (50 mg/kg) every two days after 3 days, and removed the tumors on day 14. The cancer cells were isolated and cultured in vitro. The isolated cancer cells were re-injected into the back of the mice on day 17 and the mice were sacrificed on day 37 (FIG. 14A). […] However, in the control group (control/control-tumor), 4 out of 5 cancer recurrences occurred and the tumors were larger (FIGS. 14B, 14C and 14D).

The test system of a further data set is CT26 tumor. The data set can be described thus: CT26 tumor model, Compound 75 combined with CPT-11. The data set is classed as in vivo, mouse. Particulars: Compound 75 50 mg/kg plus CPT-11 20 mg/kg. How it is done: CT26 was injected subcutaneously into immunocompetent mice (BALB/c). The mice were treated with CPT-11 or combined Compound 75 with CPT-11 when the tumor grew to 50-100 mm^3. CPT-11 was given at 20 mg/kg for 7 consecutive days; compound 75 was given at 50 mg/kg every 2 days (8 doses in total, with suspension after day 14). […] Bar, S.E.M.
Whether Compound 75 could enhance the tumor suppressive effect of chemotherapeutic agents was evaluated. Control (vehicle), CPT-11 (20 mg/kg), or Compound 75 (50 mg/kg) was administered in combination with CPT-11 to mice and sacrificed them on day 25 as shown in FIG. 13A.

The test system of data set [1] is central memory T cells (TCM) in the spleen. The data set can be described thus: Central memory T cells in spleen by flow cytometry. Format: in vivo, mouse. The method, then:
as §1
On the technique in general: In flow cytometry, cells or beads pass a laser one at a time.

In general, IC50 refers to the concentration that gives 50% inhibition. On to `COc1ccc(N(Cc2ccc(C(=O)NO)cc2)C(=O)c2cc(C(C)C)c(O)cc2O)cc1` [Compound 75, 2,4-Dihydroxy-N-(4-hydroxycarbamoyl-benzyl)-5-isopropyl-N-(4-methoxy-phenyl)-benzamide], for which, in the data set on serum TGF-β and IL-2, the “serum IL-2” value is “had no effect” and the “serum TGF-β expression” value is listed as “significantly reduced”. The half-maximal inhibitory concentration (IC50) in the data set on HCT116 amounted to 0.27 ± 0.01 µM. Moreover, in the data set with CT26 tumor recurrence (group comp.75/comp.75-tumor), the “cancer recurrence, re-inoculated with Compound 75-treated cancer cells” value was “only one mouse suffered cancer recurrence”. For the same compound, the “cancer recurrence, re-inoculated with control cancer cells” value in the data set on CT26 tumor recurrence (group comp.75/control-tumor) is “only one mouse suffered cancer recurrence”. Also, in the data set on CT26 tumor, the “body weight, combined therapy versus CPT-11 alone” value is listed as “no significant difference”. Besides, the “tumor suppressive effect in combination with CPT-11” value in the data set with CT26 tumor (day 25) is “significantly enhanced the effect of CPT-11 therapy”. Moreover, the “percentage of central memory T cells” value in data set [1] is on record as “significantly increased”.
